Reference: PubChem BioAssay (NCI)
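All cell lines were grown in 96-well plates and treated with compound for 48 hours. Abbreviation: GI50, concentration required for 50% inhibition of growth. The concentration for full growth arrest is given as TGI.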

Legend:
Assay in all cases: NCI tumour cell line growth inhibition, 48 h
SF-295 CNS = tested on: SF-295 CNS
K-562 leukemia = tested on: K-562 leukemia
SK-OV-3 ovarian = tested on: SK-OV-3 ovarian
M14 melanoma = tested on: M14 melanoma
HT29 colon = tested on: HT29 colon
EKVX NSCLC = tested on: EKVX NSCLC
CCRF-CEM leukemia = tested on: CCRF-CEM leukemia
HOP-62 NSCLC = tested on: HOP-62 NSCLC
HCT-116 colon = tested on: HCT-116 colon
SK-MEL-2 melanoma = tested on: SK-MEL-2 melanoma

SMILES	TGI (SF-295 CNS)	TGI (K-562 leukemia)	TGI (SK-OV-3 ovarian)	TGI (M14 melanoma)	TGI (HT29 colon)	TGI (EKVX NSCLC)	TGI (CCRF-CEM leukemia)	TGI (HOP-62 NSCLC)	TGI (HCT-116 colon)	TGI (SK-MEL-2 melanoma)	GI50 (SF-295 CNS)	GI50 (K-562 leukemia)	GI50 (SK-OV-3 ovarian)	GI50 (M14 melanoma)	GI50 (HT29 colon)	GI50 (EKVX NSCLC)	GI50 (CCRF-CEM leukemia)	GI50 (HOP-62 NSCLC)	GI50 (HCT-116 colon)	GI50 (SK-MEL-2 melanoma)
COc1cc([N+](=O)[O-])ccc1NC(=O)C(F)(F)F	> 100 µM	> 100 µM	> 100 µM	> 100 µM	> 100 µM	> 100 µM	> 100 µM	> 100 µM	> 100 µM	> 100 µM										
O=C(O)c1cc(N=Nc2ccc([As](=O)(O)O)cc2)ccc1O	> 100 µM	> 100 µM	> 100 µM	> 100 µM	> 100 µM	> 100 µM	> 100 µM	> 100 µM	> 100 µM	> 100 µM										
COc1cc(Cn2c(-c3ccccc3)cc3c2-c2oncc2CC3)cc(OC)c1OC	5.57 µM	> 100 µM	> 100 µM	13.4 µM	47.2 µM	> 100 µM	> 100 µM	> 100 µM	91.7 µM	> 100 µM	0.366 µM	0.364 µM	1.53 µM	0.468 µM	0.446 µM	1.39 µM	0.857 µM	2.37 µM	0.464 µM	18.6 µM
CSc1nc(NC2OC(COC(C)=O)C(OC(C)=O)C(OC(C)=O)C2OC(C)=O)c2c(OC(C)=O)c(C)c(=O)oc2n1 (stereo not given)	> 100 µM	> 100 µM	> 100 µM	> 100 µM	> 100 µM	> 100 µM	> 100 µM	> 100 µM	> 100 µM	> 100 µM										
O=C(NC1CCCCCC1)C1C(=O)N(C2CCCCCC2)C(=O)/C1=N\O (stereo not given)	> 100 µM	> 100 µM	> 100 µM	> 100 µM	94.2 µM	> 100 µM	87.2 µM	36.5 µM	31.8 µM	40.3 µM										
O=C(O)C1C(C(=O)O)C(C(=O)O)C1C(=O)O (stereo not given)	> 100 µM	> 100 µM	> 100 µM	> 100 µM	> 100 µM	> 100 µM	> 100 µM	> 100 µM	> 100 µM	> 100 µM										
COc1ccc(C(=O)O)c(Cc2cccc3ccccc23)c1	> 100 µM	> 100 µM	> 100 µM	> 100 µM	> 100 µM	> 100 µM	> 100 µM	> 100 µM	> 100 µM	> 100 µM										
COc1cc2c3c(n(CCCBr)c(=O)c2cc1OC)-c1ccc(NC(C)=O)cc1C3=O	11.5 µM	28.3 µM	10.6 µM	20.6 µM	> 100 µM	> 100 µM	19.1 µM	21.3 µM	18.1 µM	> 100 µM	0.828 µM	3.84 µM	2.28 µM	4.33 µM	2.99 µM	47.8 µM	1.44 µM	1.29 µM	2.58 µM	41.4 µM
